Data taken from PMC11325555, “Interaction of Bisphenol A and Its Analogs with Estrogen and Androgen Receptor from Atlantic Cod (Gadus morhua)” (Environmental Science & Technology, 2024).

Target: T1, Atlantic cod estrogen receptor alpha (gmEra) LBD (Gadus morhua, UniProt U5ILH7)
T1 sequence (U5ILH7 170-455): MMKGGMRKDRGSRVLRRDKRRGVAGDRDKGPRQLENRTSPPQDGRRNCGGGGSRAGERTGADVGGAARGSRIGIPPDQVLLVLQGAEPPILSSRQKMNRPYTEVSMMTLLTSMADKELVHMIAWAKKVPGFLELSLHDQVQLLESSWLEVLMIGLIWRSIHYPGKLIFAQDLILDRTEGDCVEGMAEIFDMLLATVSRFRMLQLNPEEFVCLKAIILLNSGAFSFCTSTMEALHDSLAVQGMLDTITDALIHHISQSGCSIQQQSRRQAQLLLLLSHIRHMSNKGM
Test: Luciferase reporter gene assay, gmEra antagonism (antiestrogenic activity), coexposure with 3 nM EE2
Assay type: cell-based
Conditions: coexposure with EE2 (3 nM, EC20)
Procedure: Ligand activation of gmEra and gmAra was studied with a luciferase reporter gene assay in COS-7 cells transiently transfected with the pCMX-GAL4(DBD)-gmEra(LBD) or pCMX-GAL4(DBD)-gmAra(LBD) plasmid by using the TransIT-LT1 reagent (TransIT-LT1 Transfection Reagent, Mirus). Cells were seeded into 96-well plates (5000 cells/well) and incubated for 24 h before cotransfection with the plasmid mixture (100 ng/well). The plasmid mixture contained GAL4-UAS luciferase reporter plasmid (tk-(MH100)x4 luc), the pCMX-GAL4(DBD)-gmEra(LBD) or pCMX-GAL4(DBD)-gmAra(LBD) receptor plasmids (2:1 reporter:receptor plasmid mass ratio), and a plasmid constitutively producing the β-galactosidase enzyme used for normalization of transfection efficiency (pCMV- β-Gal). […] The maximum DMSO/methanol concentrations in the exposure wells were 0.5% (v/v) in DMEM medium without phenol red (Sigma-Aldrich). After exposure, cells were lysed, and luciferase and beta-galactosidase activities were measured as luminescence and absorbance (420 nm) after the addition of luciferin and ONPG substrates, respectively, using an Enspire Multimode plate reader (PerkinElmer, Waltham, Massachusetts, USA).
To investigate potential antiestrogenic effects, COS-7 cells transiently expressing gmEra LBD were exposed to the 12 bisphenols in binary mixtures with a fixed concentration of EE2 (3 nM, corresponding to EC20) (Figure 2 and Table 1).
The dose–response curves were created using nonlinear regression and the four-parameter logistic fit in Graphpad Prism v.9. *p < 0.05 versus solvent control by ANOVA and Dunnett’s multiple comparison post hoc test.

CC(C)(c1ccc(OCC2CO2)cc1)c1ccc(OCC2CO2)cc1 (stereo not shown) [BADGE]
antiestrogenic effect on gmEra, result in words: no antiestrogenic effects
